Data: the supplement of paper PMC10307832

Key:
Experiment in all cases: relative viability (nuclei count vs DMSO), 5 days (fraction); higher = more cells survive
COR-L23 = tested on: COR-L23
Summary of the method: (§1)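 Dosing by pin tool came one day after lung cancer cell lines were seeded in 1536-well plates, using either one drug or a fixed anchor-drug dose plus five library-drug doses (not always all listed) in √10 steps. After 5 days, nuclei were counted on 4× images. Relative viability is treated-well nuclei count divided by vehicle-well nuclei count, and values are medians of duplicate plates.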

ChaGo-K-1 = tested on: ChaGo-K-1
Summary of the method: as §1

EPLC-272H = tested on: EPLC-272H
Summary of the method: as §1

H3255 = tested on: H3255
Summary of the method: as §1

HARA = tested on: HARA
Summary of the method: as §1

HCC-78 = tested on: HCC-78
Summary of the method: as §1

HOP-62 = tested on: HOP-62
Summary of the method: as §1

LCLC-97TM1 = tested on: LCLC-97TM1
Summary of the method: as §1

LXF-289 = tested on: LXF-289
Summary of the method: as §1

NCI-H1395 = tested on: NCI-H1395
Summary of the method: as §1

NCI-H1437 = tested on: NCI-H1437
Summary of the method: as §1

NCI-H1650 = tested on: NCI-H1650
Summary of the method: as §1

NCI-H1666 = tested on: NCI-H1666
Summary of the method: as §1

NCI-H1793 = tested on: NCI-H1793
Summary of the method: as §1

NCI-H1944 = tested on: NCI-H1944
Summary of the method: as §1

NCI-H2085 = tested on: NCI-H2085
Summary of the method: as §1

NCI-H2087 = tested on: NCI-H2087
Summary of the method: as §1

NCI-H2126 = tested on: NCI-H2126
Summary of the method: as §1

NCI-H3122 = tested on: NCI-H3122
Summary of the method: as §1

NCI-H441 = tested on: NCI-H441
Summary of the method: as §1

NCI-H596 = tested on: NCI-H596
Summary of the method: as §1

PC-14 = tested on: PC-14
Summary of the method: as §1

Question: Cc1csc(=NC2CCCCC2)n1/N=C/c1ccc(O)c(O)c1O [MIM1] + CC1(C)CCC(c2ccc(Cl)cc2)=C(CN2CCN(c3ccc(C(=O)NS(=O)(=O)c4ccc(N[C@H](CCN5CCOCC5)CSc5ccccc5)c(S(=O)(=O)C(F)(F)F)c4)cc3)CC2)C1 [Navitoclax] (partner 0.5 µM) was tested. Which relative viability (COR-L23; first compound 0.2 µM) did it give?
Answer: 0.966

Question: And the relative viability (COR-L23; first compound 0.6325 µM)?
Answer: 1.08

Question: And the relative viability (COR-L23; first compound 2 µM)?
Answer: 0.997

Question: And the relative viability (COR-L23; first compound 6.325 µM)?
Answer: 0.774

Question: And the relative viability (COR-L23; first compound 20 µM)?
Answer: 0.515

Question: And the relative viability (ChaGo-K-1; first compound 0.2 µM)?
Answer: 1.14

Question: And the relative viability (ChaGo-K-1; first compound 0.6325 µM)?
Answer: 0.741

Question: What about the relative viability (ChaGo-K-1; first compound 2 µM) of the same compound?
Answer: 0.943

Question: And the relative viability (ChaGo-K-1; first compound 6.325 µM)?
Answer: 0.717

Question: And the relative viability (ChaGo-K-1; first compound 20 µM)?
Answer: 0.31

Question: And the relative viability (EPLC-272H; first compound 0.2 µM)?
Answer: 1.11

Question: What about the relative viability (EPLC-272H; first compound 0.6325 µM) of the same compound?
Answer: 1.04

Question: What about the relative viability (EPLC-272H; first compound 2 µM) of the same compound?
Answer: 1.2

Question: And the relative viability (EPLC-272H; first compound 6.325 µM)?
Answer: 1

Question: What about the relative viability (EPLC-272H; first compound 20 µM) of the same compound?
Answer: 0.199

Question: And the relative viability (H3255; first compound 0.2 µM)?
Answer: 0.561

Question: And the relative viability (H3255; first compound 0.6325 µM)?
Answer: 0.557

Question: And the relative viability (H3255; first compound 2 µM)?
Answer: 0.467

Question: And the relative viability (H3255; first compound 6.325 µM)?
Answer: 0.413

Question: And the relative viability (H3255; first compound 20 µM)?
Answer: 0.198

Question: What about the relative viability (HARA; first compound 0.2 µM) of the same compound?
Answer: 1.13

Question: What about the relative viability (HARA; first compound 0.6325 µM) of the same compound?
Answer: 1.15

Question: What about the relative viability (HARA; first compound 2 µM) of the same compound?
Answer: 1.19

Question: And the relative viability (HARA; first compound 6.325 µM)?
Answer: 1.13

Question: And the relative viability (HARA; first compound 20 µM)?
Answer: 0.23

Question: What about the relative viability (HCC-78; first compound 0.2 µM) of the same compound?
Answer: 0.899

Question: What about the relative viability (HCC-78; first compound 0.6325 µM) of the same compound?
Answer: 0.731

Question: And the relative viability (HCC-78; first compound 2 µM)?
Answer: 0.668

Question: And the relative viability (HCC-78; first compound 6.325 µM)?
Answer: 0.562

Question: What about the relative viability (HCC-78; first compound 20 µM) of the same compound?
Answer: 0.739

Question: And the relative viability (HOP-62; first compound 0.2 µM)?
Answer: 1.11

Question: And the relative viability (HOP-62; first compound 0.6325 µM)?
Answer: 1.11

Question: And the relative viability (HOP-62; first compound 2 µM)?
Answer: 0.525

Question: And the relative viability (HOP-62; first compound 6.325 µM)?
Answer: 0.86

Question: What about the relative viability (HOP-62; first compound 20 µM) of the same compound?
Answer: 0.559

Question: And the relative viability (LCLC-97TM1; first compound 0.2 µM)?
Answer: 0.567

Question: And the relative viability (LCLC-97TM1; first compound 0.6325 µM)?
Answer: 0.398

Question: And the relative viability (LCLC-97TM1; first compound 2 µM)?
Answer: 0.397

Question: And the relative viability (LCLC-97TM1; first compound 6.325 µM)?
Answer: 0.48

Question: What about the relative viability (LCLC-97TM1; first compound 20 µM) of the same compound?
Answer: 0.203

Question: And the relative viability (LXF-289; first compound 0.2 µM)?
Answer: 0.921

Question: What about the relative viability (LXF-289; first compound 0.6325 µM) of the same compound?
Answer: 0.939

Question: What about the relative viability (LXF-289; first compound 2 µM) of the same compound?
Answer: 0.921

Question: And the relative viability (LXF-289; first compound 6.325 µM)?
Answer: 0.768

Question: And the relative viability (LXF-289; first compound 20 µM)?
Answer: 0.487

Question: And the relative viability (NCI-H1395; first compound 0.2 µM)?
Answer: 1.06

Question: And the relative viability (NCI-H1395; first compound 0.6325 µM)?
Answer: 1.1

Question: And the relative viability (NCI-H1395; first compound 2 µM)?
Answer: 1.63

Question: And the relative viability (NCI-H1395; first compound 6.325 µM)?
Answer: 0.646

Question: And the relative viability (NCI-H1395; first compound 20 µM)?
Answer: 0.425

Question: And the relative viability (NCI-H1437; first compound 0.2 µM)?
Answer: 0.989

Question: And the relative viability (NCI-H1437; first compound 0.6325 µM)?
Answer: 1.1

Question: And the relative viability (NCI-H1437; first compound 2 µM)?
Answer: 0.998

Question: And the relative viability (NCI-H1437; first compound 6.325 µM)?
Answer: 0.654

Question: What about the relative viability (NCI-H1437; first compound 20 µM) of the same compound?
Answer: 0.27

Question: What about the relative viability (NCI-H1650; first compound 0.2 µM) of the same compound?
Answer: 1.13

Question: And the relative viability (NCI-H1650; first compound 0.6325 µM)?
Answer: 1.18

Question: And the relative viability (NCI-H1650; first compound 2 µM)?
Answer: 0.693

Question: And the relative viability (NCI-H1650; first compound 6.325 µM)?
Answer: 0.452

Question: What about the relative viability (NCI-H1650; first compound 20 µM) of the same compound?
Answer: 0.202

Question: And the relative viability (NCI-H1666; first compound 0.2 µM)?
Answer: 1

Question: What about the relative viability (NCI-H1666; first compound 0.6325 µM) of the same compound?
Answer: 1.15

Question: And the relative viability (NCI-H1666; first compound 2 µM)?
Answer: 1.11

Question: What about the relative viability (NCI-H1666; first compound 6.325 µM) of the same compound?
Answer: 0.727

Question: And the relative viability (NCI-H1666; first compound 20 µM)?
Answer: 0.667

Question: What about the relative viability (NCI-H1793; first compound 0.2 µM) of the same compound?
Answer: 0.438

Question: What about the relative viability (NCI-H1793; first compound 0.6325 µM) of the same compound?
Answer: 0.546

Question: And the relative viability (NCI-H1793; first compound 2 µM)?
Answer: 0.436

Question: And the relative viability (NCI-H1793; first compound 6.325 µM)?
Answer: 0.475

Question: And the relative viability (NCI-H1793; first compound 20 µM)?
Answer: 0.47

Question: And the relative viability (NCI-H1944; first compound 0.2 µM)?
Answer: 0.985

Question: And the relative viability (NCI-H1944; first compound 0.6325 µM)?
Answer: 1.04

Question: And the relative viability (NCI-H1944; first compound 2 µM)?
Answer: 0.845

Question: And the relative viability (NCI-H1944; first compound 6.325 µM)?
Answer: 0.938

Question: And the relative viability (NCI-H1944; first compound 20 µM)?
Answer: 1.11

Question: And the relative viability (NCI-H2085; first compound 0.2 µM)?
Answer: 1.17

Question: What about the relative viability (NCI-H2085; first compound 0.6325 µM) of the same compound?
Answer: 1.08

Question: And the relative viability (NCI-H2085; first compound 2 µM)?
Answer: 1.12

Question: And the relative viability (NCI-H2085; first compound 6.325 µM)?
Answer: 1.02

Question: What about the relative viability (NCI-H2085; first compound 20 µM) of the same compound?
Answer: 1.01

Question: And the relative viability (NCI-H2087; first compound 0.2 µM)?
Answer: 1.05

Question: What about the relative viability (NCI-H2087; first compound 0.6325 µM) of the same compound?
Answer: 0.921

Question: What about the relative viability (NCI-H2087; first compound 2 µM) of the same compound?
Answer: 1.03

Question: What about the relative viability (NCI-H2087; first compound 6.325 µM) of the same compound?
Answer: 0.928

Question: What about the relative viability (NCI-H2087; first compound 20 µM) of the same compound?
Answer: 0.382

Question: And the relative viability (NCI-H2126; first compound 0.2 µM)?
Answer: 0.898

Question: And the relative viability (NCI-H2126; first compound 0.6325 µM)?
Answer: 0.854

Question: And the relative viability (NCI-H2126; first compound 2 µM)?
Answer: 0.974

Question: What about the relative viability (NCI-H2126; first compound 6.325 µM) of the same compound?
Answer: 0.831

Question: What about the relative viability (NCI-H2126; first compound 20 µM) of the same compound?
Answer: 0.812

Question: What about the relative viability (NCI-H3122; first compound 0.2 µM) of the same compound?
Answer: 1.06

Question: What about the relative viability (NCI-H3122; first compound 0.6325 µM) of the same compound?
Answer: 1.09

Question: And the relative viability (NCI-H3122; first compound 2 µM)?
Answer: 1.1

Question: What about the relative viability (NCI-H3122; first compound 6.325 µM) of the same compound?
Answer: 0.761

Question: And the relative viability (NCI-H3122; first compound 20 µM)?
Answer: 0.426

Question: What about the relative viability (NCI-H441; first compound 0.2 µM) of the same compound?
Answer: 0.58

Question: What about the relative viability (NCI-H441; first compound 0.6325 µM) of the same compound?
Answer: 0.912

Question: And the relative viability (NCI-H441; first compound 2 µM)?
Answer: 0.706

Question: What about the relative viability (NCI-H441; first compound 6.325 µM) of the same compound?
Answer: 0.577

Question: What about the relative viability (NCI-H441; first compound 20 µM) of the same compound?
Answer: 0.24

Question: And the relative viability (NCI-H596; first compound 0.2 µM)?
Answer: 0.935

Question: And the relative viability (NCI-H596; first compound 0.6325 µM)?
Answer: 0.921

Question: And the relative viability (NCI-H596; first compound 2 µM)?
Answer: 0.895

Question: What about the relative viability (NCI-H596; first compound 6.325 µM) of the same compound?
Answer: 0.806

Question: And the relative viability (NCI-H596; first compound 20 µM)?
Answer: 0.7

Question: What about the relative viability (PC-14; first compound 0.2 µM) of the same compound?
Answer: 1.02

Question: And the relative viability (PC-14; first compound 0.6325 µM)?
Answer: 1.03

Question: What about the relative viability (PC-14; first compound 2 µM) of the same compound?
Answer: 0.988

Question: And the relative viability (PC-14; first compound 6.325 µM)?
Answer: 0.894

Question: And the relative viability (PC-14; first compound 20 µM)?
Answer: 0.133
